Tests used:
Type in all cases: cell-based
[1] = system: HSV-1 (herpes simplex virus type 1, strain Schooler); test: HSV-1 antiviral assay (plaque reduction in WI-38 cell monolayers); details: Human alphaherpesvirus 1, 96 h; WI-38 cells; plaque reduction of at least 50%; 4 days at 37° C.; read-out: ID50 for HSV-1
Description: (§1) Assays were performed in cell culture systems to determine the concentrations of compounds that are effective in preventing several kinds of viral infections. HSV-1 (herpes simplex virus type 1, strain Schooler), HSV-2 (herpes simplex virus type 2, strain 186), VZV (varicella zoster virus, strain ELLEN), MuLV (murine leukemia virus, strain CAS), HIV (human immunodeficiency virus, strain HTLV-IIIB). Cell Culture Assays: HSV-1, HSV-2, and VZV antiviral assays: Virus was adsorbed to WI-38 cell culture monolayers in 6 well culture plates (Costar, Cambridge, Mass.) for 1 hour prior to addition of maintenance medium containing duplicate dilutions of the test compound. Inhibition of plaque development was evaluated on fixed and stained monolayers after 4 days incubation at 37° C. for HSV-1 and HSV-2 and after 6-7 days incubation at 37° C. for VZV. ID50 values were determined from the drug concentration which conferred at least a 50% plaque reduction compared to virus controls.

[2] = system: HSV-2 (herpes simplex virus type 2, strain 186); test: HSV-2 antiviral assay (plaque reduction in WI-38 cell monolayers); details: Human alphaherpesvirus 2, 96 h; WI-38 cells; plaque reduction of at least 50%; 4 days at 37° C.; read-out: ID50 for HSV-2
Description: as §1

[3] = system: VZV (varicella zoster virus, strain ELLEN); test: VZV antiviral assay (plaque reduction in WI-38 cell monolayers); details: Human alphaherpesvirus 3; WI-38 cells; plaque reduction of at least 50%; 6-7 days at 37° C.; read-out: ID50 for VZV
Description: as §1

[4] = system: MuLV (murine leukemia virus, strain CAS); test: MuLV antiviral assay (syncytial plaques, SC-1 cells / XC cells); details: SC1, XC cell overlay, syncytial plaques counted, read-out: ID50 for MuLV
Description: Assays were performed in cell culture systems to determine the concentrations of compounds that are effective in preventing several kinds of viral infections.
HSV-1 (herpes simplex virus type 1, strain Schooler), HSV-2 (herpes simplex virus type 2, strain 186), VZV (varicella zoster virus, strain ELLEN), MuLV (murine leukemia virus, strain CAS), HIV (human immunodeficiency virus, strain HTLV-IIIB). Cell Culture Assays:
MuLV antiviral assay: Antiviral assays using MuLV were performed with some modification, as described by Rowe et al. and Shannon et al.. SC-1 cells were planted at approximately 2×10^5 cell per well in 6 well plates. After overnight incubation at 37° C., the cell cultures were sensitized with DEAE-Dextran for one hour at 37° C., rinsed and inoculated with MuLV. Cultures were re-fed with growth medium containing different concentrations of the test compound. After three more days at 37° C., cultures were re-fed with fresh medium plus test compounds and incubated at 37° C. for an additional 3 days. Cultures were then washed to remove medium, ultraviolet light irradiated, and planted with approximately 5×10^5 XC cells per well in cell growth medium containing the appropriate concentration of the test compound. […] Finally the cultures were rinsed, stained and syncytial plaques were counted. […]

[5] = system: HIV (human immunodeficiency virus, strain HTLV-IIIB); test: HIV antiviral assay (reduction of viral cytopathic effect in CEM cells, XTT-PMS); details: Human immunodeficiency virus 1, IIIB, CCRF-CEM, 168 h, minimum drug concentration that inhibits CPE by 50%, 7 days at 37° C., read-out: ID50 for HIV
Description: Assays were performed in cell culture systems to determine the concentrations of compounds that are effective in preventing several kinds of viral infections. HSV-1 (herpes simplex virus type 1, strain Schooler), HSV-2 (herpes simplex virus type 2, strain 186), VZV (varicella zoster virus, strain ELLEN), MuLV (murine leukemia virus, strain CAS), HIV (human immunodeficiency virus, strain HTLV-IIIB). Cell Culture Assays: HIV antiviral assay: Suspensions of CEM cells (P. L. Nara, et. al., Nature 332, 469(1988)) were infected at a multiplicity of infection of 0.12 TCID50 /cell with HIV (strain HTLV-III B). […] Following incubation, viable cell numbers were counted in each well using a colorimetric assay following incubation of cells with XTT-PMS solution (XTT tetrazolium reagent plus phenazine methosulfate, PMS). Percent reduction of viral cytopathic effect (CPE) in drug treated compared to untreated virus infected cells, and percent reduction of cell viability in drug treated uninfected cells compared to untreated controls were calculated and plotted versus the drug concentrations tested. […]

[6] = Cytotoxicity by microscopic examination of the cell sheet; details: human, WI-38 cells
[7] = Reduction of viability of uninfected CEM cells (XTT-PMS); details: human, footnotes *** and **** to HIV, 7 days, read-out: Minimum cytotoxic drug concentration that reduces cell viability by 50%
Description: HIV antiviral assay: Suspensions of CEM cells (P. L. Nara, et. al., Nature 332, 469(1988)) were infected at a multiplicity of infection of 0.12 TCID50 /cell with HIV (strain HTLV-III B). After adsorption for 1-2 hours at 37° C., infected cells were diluted in growth medium (RPMI 1640 containing the antibiotics penicillin plus streptomycin and 10% fetal calf serum) to give a final cell concentration of 1×10^4 viable cells/culture well in the presence of serial dilutions of the test compound, starting at 100 μg/ml. Triplicate samples at each drug concentration were used. Cultures of uninfected CEM cells were similarly prepared and incubated with serial dilutions of test compound in duplicate. All assays were performed in 96 well disposable cell culture plates. Untreated (infected and uninfected) cells were included as controls. […] Following incubation, viable cell numbers were counted in each well using a colorimetric assay following incubation of cells with XTT-PMS solution (XTT tetrazolium reagent plus phenazine methosulfate, PMS). Percent reduction of viral cytopathic effect (CPE) in drug treated compared to untreated virus infected cells, and percent reduction of cell viability in drug treated uninfected cells compared to untreated controls were calculated and plotted versus the drug concentrations tested. […]

| IC50 [4] [µM] | IC50 [5] [µM] | SMILES | IC50 [1] [µM] | IC50 [2] [µM] | IC50 [3] [µM] | MCC at 96 h ([6]; footnote * to HSV-1 and HSV-2, 4 days, read-out: Cytotoxic concentration by microscopic examination of the cell sheet (HSV-1 and HSV-2 assays)) [µM] | MCC ([6]; footnote ** to VZV, 6-7 days, read-out: Cytotoxic concentration by microscopic examination of the cell sheet (VZV assay)) [µM] | CC50 at 168 h [7] [µM] |
| --- | --- | --- | --- | --- | --- | --- | --- | --- |
| 23 to 46 | 301 | Nc1ncnc2c1ncn2[C@H]1C[C@@H](CO)C1 [Example 2, (cis)-3-(6-Amino-9H-purin-9-yl)cyclobutanemethanol] | 456 | 456 | > 114 | 456 | 228 | > 456 |
| 43 to 106 | 230 | Nc1nc2c(ncn2[C@H]2C[C@@H](CO)C2)c(=O)[nH]1 [Example 1, (cis)-2-amino-1,9-dihydro-9-[3-(hydroxymethyl)cyclobutyl]-6H-purin-6-one] | 9 to 21 | 9 to 21 | 21 | – | – | > 425 |
